Laboratory results reported in patent publication US9963433B2, “Anticancer drugs including the chemical structures of an androgen receptor ligand and a histone deacetylase inhibitor” (Wayne State University, priority 2016, dated 2018).

How the values were obtained:
[1] = test system: HDACs from Hela cell nuclear extract; type: biochemical; conditions: HeLa cell nuclear extract; tested at 10 μM and 25 μM; FIG. 2B
Protocol: (§1) FIGS. 2A-2F show measurement of intrinsic and in situ HDACi activities. […] IC50 values were calculated from nonlinear regression plots using GraphPad Prism5 software. […] Recombinant HDAC6 was incubated with each drug at the indicated concentrations. IC50 values were calculated from nonlinear regression plots using GraphPad Prism5 software.
(§2) HDAC activity assay. In vitro HDAC inhibition was measured by using the HDAC fluorimetric assay/drug discovery Kit (Enzo Life Sciences, BML-AK500) and the HDAC6 fluorometric drug discovery kit (Enzo Life Sciences, BML-AK516) following the manufacturer's protocols and instructions. IC50 values were calculated from nonlinear […] plots using GraphPad Prism5 software.
(§3) HDAC1 and HDAC2 are enriched in nuclear extracts whereas HDAC6 is a cytosolic enzyme that is the principal modulator of the acetylation status of Hsp90. […] Again, TSA served as the positive control in FIG. 2D.

[2] = test system: C4-2 cells; assay: MTT cell viability assay, C4-2 cells; type: cell-based; conditions: MTT, Day 3; up to 10 μM; FIG. 6A
Protocol: (§4) (6A) C4-2 cells were seeded in 96-well plates and 24 h later, they were treated with the indicated compounds (0.1 μM-10 μM) or with vehicle (DMSO). Cell viability was measured by the MTT assay on Days 0 and 3 of treatment. EC50 values were calculated from nonlinear regression plots using GraphPad Prism5 software. […] Cell viability was measured by the MTT assay on Days 0 and 3 of treatment. […] Cell viability was measured by the MTT assay on Days 0 and 3 of treatment. […] (6D) 22Rv1 cells were infected with AR shRNA lentivirus, or control shRNA. 72 h after infection, cells were plated and viable cells were measured by the MTT assay on the indicated days (6D, bottom). Cells were also harvested for western blot analysis and probed with antibody to AR, which was also reactive with the AR splice variant AR-V7 (6D, top). (6E) 22Rv1 cells were seeded in 96-well plates and 24 h later, they were treated with the indicated compounds (0.1 μM-10 μM) or with vehicle (DMSO). Cell viability was measured by the MTT assay on Days 0 and 3 of treatment. EC50 values were calculated from nonlinear regression plots using GraphPad Prism5 software.
(§5) Cell Proliferation Assay. Cells were trypsinized and 6000 cells/well were seeded in 96-well plates coated with poly-D-lysine. The cells were seeded in phenol red-free medium supplemented with 10% FBS, 100 units/ml penicillin, 100 μg/ml streptomycin, 2 mM L-glutamine mixture and sodium pyruvate (1 mM) for C4-2 cells and phenol red-free medium supplemented with 10% FBS, 100 units/ml penicillin, 100 μg/ml streptomycin and 2 mM L-glutamine mixture for 22Rv1 cells. The cells were grown at 37° C. in 5% CO2. Twenty four hours after seeding in the 96-well plates, the cells were treated with indicated compound or DMSO (vehicle). The culture medium was not changed during the time course of the assay. On Day zero and on Day 3, cell viability was determined using the MTT assay. MTT (10 μL, 5 mg/mL) was added to each well and incubated for 2 h at 37° C. The formazan crystal sediments were dissolved in 100 μL of DMSO, and the absorbance at 570 nm was measured using the BioTek Synergy 2 Microplate Reader (BioTek, Winooski, Vt.). […] IC50 values were calculated from nonlinear […] plots using GraphPad Prism5 software.

[3] = test system: 22Rv1 cells; assay: MTT cell viability assay, 22Rv1 cells; type: cell-based; conditions: Day 3, 0.1 μM-10 μM, FIG. 6E
Protocol: as §4, §5

[4] = target: T1, human recombinant HDAC6 (Homo sapiens, UniProt Q9UBN7); assay: HDAC6 fluorometric assay, recombinant enzyme; type: biochemical; conditions: tested at 10 μM and 25 μM; FIG. 2D
T1 construct: purchased Enzo Life Sciences BML-AK516
T1 sequence (Q9UBN7 1-1215): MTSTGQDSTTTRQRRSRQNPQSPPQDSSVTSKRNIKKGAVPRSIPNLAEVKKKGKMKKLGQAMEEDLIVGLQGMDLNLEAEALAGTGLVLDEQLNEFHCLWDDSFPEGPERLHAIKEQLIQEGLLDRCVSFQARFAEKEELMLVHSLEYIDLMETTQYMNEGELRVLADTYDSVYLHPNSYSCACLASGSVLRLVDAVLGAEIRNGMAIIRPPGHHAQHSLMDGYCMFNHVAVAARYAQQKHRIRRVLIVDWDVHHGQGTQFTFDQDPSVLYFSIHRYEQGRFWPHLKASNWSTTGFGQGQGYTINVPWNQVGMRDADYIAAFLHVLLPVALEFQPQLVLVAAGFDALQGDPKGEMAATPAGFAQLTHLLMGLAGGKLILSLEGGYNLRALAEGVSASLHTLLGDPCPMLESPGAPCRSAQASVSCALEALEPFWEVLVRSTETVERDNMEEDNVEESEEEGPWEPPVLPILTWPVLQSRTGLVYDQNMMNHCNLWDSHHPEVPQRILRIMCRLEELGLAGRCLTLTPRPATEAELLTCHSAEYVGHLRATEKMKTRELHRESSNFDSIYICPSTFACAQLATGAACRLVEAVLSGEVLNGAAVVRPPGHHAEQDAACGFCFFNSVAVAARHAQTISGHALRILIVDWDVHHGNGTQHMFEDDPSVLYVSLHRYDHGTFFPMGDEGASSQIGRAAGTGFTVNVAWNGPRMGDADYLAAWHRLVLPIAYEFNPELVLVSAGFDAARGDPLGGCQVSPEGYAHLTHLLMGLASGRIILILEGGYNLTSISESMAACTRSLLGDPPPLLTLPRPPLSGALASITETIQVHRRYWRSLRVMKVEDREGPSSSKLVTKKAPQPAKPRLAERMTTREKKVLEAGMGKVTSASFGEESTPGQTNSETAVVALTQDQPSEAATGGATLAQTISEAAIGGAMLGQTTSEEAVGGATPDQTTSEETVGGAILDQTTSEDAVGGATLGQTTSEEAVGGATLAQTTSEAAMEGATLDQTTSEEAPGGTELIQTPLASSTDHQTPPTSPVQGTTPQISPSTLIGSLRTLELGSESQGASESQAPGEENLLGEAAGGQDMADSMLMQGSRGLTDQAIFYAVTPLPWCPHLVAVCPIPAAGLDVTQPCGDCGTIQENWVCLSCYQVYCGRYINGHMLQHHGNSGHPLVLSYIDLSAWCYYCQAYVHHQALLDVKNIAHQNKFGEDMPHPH
Protocol: as §1, §2, §3

In the case of `CCOC(=O)/C=C/c1ccc(N2C(=S)N(c3ccc(C#N)c(C(F)(F)F)c3)C(=O)C2(C)C)cc1F` [Compound 1002, (E)-ethyl-3-(4-(3-(4-cyano-3-(trifluoromethyl)phenyl)-5,5-dimethyl-4-oxo-2-thioxoimidazolidin-1-yl)-2-fluorophenyl)acrylate], the “inhibition of nuclear HDAC activity” value [1] is reported as “did not inhibit nuclear HDAC activity even up to a concentration of 25 μM”, the “effect on C4-2 cell growth” value [2] is reported as “unable to appreciably inhibit C4-2 cell growth” and the “effect on growth of 22Rv1 cells” value [3] is reported as “modest effect at high concentrations”. The “inhibitory activity against HDAC6” value [4] was “did not show significant inhibitory activity”.
